Source: patent US10689344B2, “Biphenylamide derivative Hsp90 inhibitors” (University of Kansas, priority 2013, dated 2020)
Each block holds one compound with its values, some of them ahead of it.

Tests used:
[1] = tested on: MCF-7 (estrogen receptor positive breast cancer cells); experiment: Anti-proliferation assay (MTS/PMS, 72 h), MCF-7; assay type: cell-based; conditions: Homo sapiens
In short: (§1)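 Cells seeded at 2000/well, attached overnight, then exposed to compound at varying concentrations (1% DMSO final) for 72 h at 37° C, 5% CO2. Viability by MTS/PMS, normalised to 1% DMSO controls as 100% proliferation; IC50 from separate triplicate experiments.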

[2] = tested on: SKBr3 (estrogen receptor negative, HER2 over-expressing breast cancer cells); experiment: Anti-proliferation assay (MTS/PMS, 72 h), SKBr3; assay type: cell-based; conditions: Homo sapiens
In short: as §1

[3] = tested on: Hsp90-dependent client proteins (Her2, Raf, Akt) in MCF-7 cells; experiment: Western blot analyses of Hsp90-dependent client proteins from MCF-7 cell lysate; assay type: cell-based; conditions: for non-Hsp90-dependent protein actin (western blot): FIG. 1; for Hsp90-dependent client proteins Her2, Raf, and Akt (western blot): FIG. 1, at the same concentration needed to manifest anti-proliferative activity (H 5-fold, L 1/2)
Description: (§2) FIG. 1—Western blot analyses of Hsp90-dependent client proteins from MCF-7 breast cancer cell lysate upon treatment with biphenyl derivatives. H represents a concentration equal to 5-fold of the anti-proliferative activity. L represents a concentration ½ of the anti-proliferative activity. Geldanamycin (G, 0.5 μM) and dimethylsulfoxide (D, 100%) were employed as positive and negative controls.
as §2, with “FIGS. 2A & 2B—Western” for “FIG. 1—Western”, “derivatives. Concentrations (in μM) were indicated above each line.” for “derivatives.”, “equal to 0.5-fold” for “½”, “(GDA,” for “(G,”, “(DMSO,” for “(D,”
FIG. 3—Western blot analyses of Hsp90-dependent client proteins from MCF-7 breast cancer cell lysate upon treatment with compound 6l. Concentrations (in μM) were indicated above each line, and geldanamycin (GDA, 0.5 μM) and dimethylsulfoxide (DMSO) were employed as positive and negative controls.
MCF-7 cells were cultured as described above and treated with various concentrations of drug, GDA in DMSO (1% DMSO final concentration), or vehicle (DMSO) for 24 h. Cells were harvested in cold PBS and lysed in RIPA lysis buffer containing 1 mM PMSF, 2 mM sodium orthovanadate, and protease inhibitors on ice for 1 h. Lysates were clarified at 14000 g for 10 min at 4° C. Protein concentrations were determined using the Pierce BCA protein assay kit per the manufacturer's instructions. Equal amounts of protein (20 μg) were electrophoresed under reducing conditions, transferred to a nitrocellulose membrane, and immunoblotted with the corresponding specific antibodies. Membranes were incubated with an appropriate horseradish peroxidase-labeled secondary antibody, developed with a chemiluminescent substrate, and visualized.

SKME128 (Melanoma) = experiment: Activity of compounds in cancer cell lines, SKME128; assay type: cell-based; conditions: Table 12, SKME128 (Melanoma)
Description: (§3) Cells were maintained in a 1:1 mixture of Advanced DMEM/F12 (Gibco) supplemented with non-essential amino acids, L-glutamine (2 mM), streptomycin (500 μg/mL), penicillin (100 units/mL), and 10% FBS. Cells were grown to confluence in a humidified atmosphere (37° C., 5% CO2), seeded (2000/well, 100 μL) in 96-well plates, and allowed to attach overnight. Compound at varying concentrations in DMSO (1% DMSO final concentration) was added, and cells were returned to the incubator for 72 h. At 72 h, the number of viable cells was determined using an MTS/PMS cell proliferation kit (Promega) per the manufacturer's instructions. Cells incubated in 1% DMSO were used at 100% proliferation, and values were adjusted accordingly. IC50 values were calculated from separate experiments performed in triplicate using GraphPad Prism.

[4] = tested on: JMAR (Head and Neck Cancer); experiment: Activity of compounds in cancer cell lines, JMAR; assay type: cell-based; conditions: Table 12, JMAR (Head and Neck Cancer)
Excerpt: Biological activity of these compounds of the present disclosure may be measured using a variety of different methods and techniques. In some embodiments of the present disclosure, the activity is measuring using anti-proliferation assays to determine an IC50 value for particular cell lines such as JMAR and MCF-7. Additionally, in other embodiments, the activity of the instant compounds is measuring using Western blot and measuring protein expression in a variety of different downstream poteins regulated by Hsp90.
as §3

SKBr3 cells = conditions: cited from earlier work
[5] = MCF7, Table 1, ortho, meta and para biphenyl cores
[6] = MCF7, Table 3, substituted para-para biphenyl core
[7] = MCF7, Table 7, para-para biphenyl core with modified ether groups
[8] = MCF7, Table 8, para-para biphenyl core with substituted biphenylamide group
[9] = SK-BR-3, Table 1, ortho, meta and para biphenyl cores
[10] = SK-BR-3, Table 3, substituted para-para biphenyl core
[11] = SK-BR-3, Table 7, para-para biphenyl core with modified ether groups
[12] = SK-BR-3, Table 8, para-para biphenyl core with substituted biphenylamide group
[13] = MCF-7 cells, FIG. 1, all concentrations tested
[14] = MCF7, Table 9, para-meta biphenyl core with prenylated benzylamide
[15] = SK-BR-3, Table 9, para-meta biphenyl core with prenylated benzylamide

SMILES: COc1cccc(-c2cc(C(=O)Nc3ccc(-c4ccc(OC5CCN(C)CC5)cc4)cc3)ccc2OC)c1 [Compound 9a, 3′,6-dimethoxy-N-(4′-((1-methylpiperidin-4-yl)oxy)-[1,1′-biphenyl]-4-yl)-[1,1′-biphenyl]-3-carboxamide]
IC50 [1, 5]: 710 ± 20 nM | IC50 [1, 6]: 710 ± 20 nM | IC50 ([1]; MCF7, Table 5, modified linkers in para-para biphenyl core): 710 ± 20 nM | IC50 [1, 7]: 710 ± 20 nM | IC50 [1, 8]: 710 ± 20 nM | IC50 [2, 9]: 470 ± 60 nM | IC50 [2, 10]: 470 ± 60 nM | IC50 ([2]; SK-BR-3, Table 5, modified linkers in para-para biphenyl core): 470 ± 60 nM | IC50 [2, 11]: 470 ± 60 nM | IC50 [2, 12]: 470 ± 60 nM | non-Hsp90-dependent protein actin (western blot) ([3]; MCF-7 cells): not affected | Hsp90 levels (western blot) [3, 13]: remained constant | Hsp90-dependent client proteins Her2, Raf, and Akt (western blot) ([3]; MCF-7 cells): degradation in a concentration-dependent manner

SMILES: CN1CCC(Oc2ccc(-c3ccc(NC(=O)c4ccc(C(C)(C)C)cc4)cc3)cc2)CC1 [drawing 163]
IC50 (SKME128 (Melanoma)): 480 nM

SMILES: CO[C@@H]1[C@@H](OC(N)=O)[C@@H](O)[C@H](Oc2ccc3c(O)c(NC(=O)c4ccc(O)c(CC=C(C)C)c4)c(=O)oc3c2C)OC1(C)C [Novobiocin]
efficiency as Hsp90 C-terminal inhibitor (SKBr3 cells): ~700 µM

SMILES: CC(C)=CCc1cc(C(=O)Nc2cccc(-c3ccc(OC4CCN(C)CC4)cc3)c2)ccc1O [Compound 3a]
IC50 [1, 14]: 2210 ± 60 nM | IC50 [2, 15]: 2940 ± 110 nM | Her2, Raf-1 and p-Akt (western blot, concentration-dependent analysis) ([3]; MCF-7 cell lysates, FIG. 2B): degradation of Her2, Raf-1 and p-Akt

SMILES: COc1cccc(-c2cc(C(=O)Nc3ccc(-c4ccc(OC5CC6CCC(C5)N6C)cc4)cc3)ccc2OC)c1 [Compound 56b, 3′,6-dimethoxy-N-(4′-(((1R,3s,5S)-8-methyl-8-azabicyclo[3.2.1]octan-3-yl)oxy)-[1,1′-biphenyl]-4-yl)-[1,1′-biphenyl]-3-carboxamide]
IC50 [1, 7]: 1320 ± 230 nM | IC50 [2, 11]: 1670 ± 600 nM

SMILES: COc1ccc(C(=O)Nc2ccc(-c3ccc(OC4CCN(C)CC4)cc3)cc2)cc1-c1cccc(OC(C)=O)c1 [Compound 49d, 2′-methoxy-5′-((4′-((1-methylpiperidin-4-yl)oxy)-[1,1′-biphenyl]-4-yl)carbamoyl)-[1,1′-biphenyl]-3-yl acetate]
IC50 [1, 8]: 620 ± 70 nM | IC50 [2, 12]: 270 ± 50 nM

SMILES: COc1ccc(C(=O)Nc2ccc(-c3ccc(OC4CCN(C)CC4)cc3)cc2)cc1-c1ccc(OC(C)=O)cc1 [Compound 49e, 2′-methoxy-5′-((4′-((1-methylpiperidin-4-yl)oxy)-[1,1′-biphenyl]-4-yl)carbamoyl)-[1,1′-biphenyl]-4-yl acetate]
IC50 [1, 8]: 640 ± 80 nM | IC50 [2, 12]: 140 ± 10 nM

The next lines start with results.

IC50 [1, 5]: 1250 ± 20 nM | IC50 [1, 14]: 2710 ± 400 nM | IC50 [2, 9]: 3650 ± 140 nM | IC50 [2, 15]: 3470 ± 470 nM
SMILES: COc1cccc(-c2cc(C(=O)Nc3cccc(-c4ccc(OC5CCN(C)CC5)cc4)c3)ccc2OC)c1 [Compound 6a, 3′,6-dimethoxy-N-(4′-((1-methylpiperidin-4-yl)oxy)-[1,1′-biphenyl]-3-yl)-[1,1′-biphenyl]-3-carboxamide]
Hsp90 client proteins Her2 and Raf-1 (western blot) ([3]; MCF-7 cell lysates, FIG. 2A, concentrations that mirror anti-proliferative IC50 values): degraded | non-Hsp90-dependent protein actin (western blot) ([3]; MCF-7 cells): not affected | Hsp90 levels (western blot) [3, 13]: remained constant | Hsp90-dependent client proteins Her2, Raf, and Akt (western blot) ([3]; MCF-7 cells): degradation in a concentration-dependent manner

IC50 ([1]; MCF7, Table 2, para-meta biphenyl core with substituted benzylamide): 880 ± 70 nM | IC50 ([2]; SK-BR-3, Table 2, para-meta biphenyl core with substituted benzylamide): 1940 ± 110 nM
SMILES: CN1CCC(Oc2ccc(-c3cccc(NC(=O)c4ccc(Br)cc4)c3)cc2)CC1 [Compound 6l, 4-Bromo-N-(4′-((1-methylpiperidin-4-yl)oxy)-[1,1′-biphenyl]-3-yl)benzamide]
Hsp90-dependent client proteins Her2, Raf-1 and p-Akt (western blot) ([3]; MCF-7 cell lysates, FIG. 3): degraded in a concentration dependent manner | Hsp90 levels (western blot) ([3]; MCF-7 cell lysates, FIG. 3): remained unchanged | actin levels (western blot) ([3]; MCF-7 cell lysates, FIG. 3): remained constant

IC50 [4]: 110 nM
SMILES: CN1CCC(Oc2ccc(-c3cccc(NC(=O)c4ccc(Br)cc4)c3)cc2)CC1 [drawing 161]

IC50 [4]: 9.7 nM
SMILES: COc1ccc(C(=O)Nc2ccc(Nc3ccc(OC4CCN(C)CC4)cc3)cc2)cc1 [drawing 162]

IC50 [1, 5]: 2000 ± 70 nM | IC50 [2, 9]: 1620 ± 70 nM
SMILES: COc1cccc(-c2cc(C(=O)Nc3cccc(-c4cccc(OC5CCN(C)CC5)c4)c3)ccc2OC)c1 [Compound 61d, 3′,6-dimethoxy-N-(3′-((1-methylpiperidin-4-yl)oxy)-[1,1′-biphenyl]-3-yl)-[1,1′-biphenyl]-3-carboxamide]

IC50 [1, 5]: 770 ± 80 nM | IC50 [2, 9]: 1250 ± 40 nM
SMILES: CN1CCC(Oc2ccc(-c3cccc(NC(=O)C45CC6CC(CC(C6)C4)C5)c3)cc2)CC1 [Compound 61a, N-(4′-((1-methylpiperidin-4-yl)oxy)-[1,1′-biphenyl]-3-yl)adamantane-1-carboxamide]

IC50 [1, 5]: 2070 ± 90 nM | IC50 [2, 9]: 2600 ± 710 nM
SMILES: CN1CCC(Oc2cccc(-c3cccc(NC(=O)C45CC6CC(CC(C6)C4)C5)c3)c2)CC1 [Compound 61b, N-(3′-((1-methylpiperidin-4-yl)oxy)-[1,1′-biphenyl]-3-yl)adamantane-1-carboxamide]

IC50 [1, 6]: 1250 ± 280 nM | IC50 [2, 10]: 1950 nM
SMILES: COc1cccc(-c2cc(C(=O)Nc3ccc(-c4ccc(OC5CCN(C)CC5)c([N+](=O)[O-])c4)cc3)ccc2OC)c1 [Compound 34a, 3′,6-dimethoxy-N-(4′-((1-methylpiperidin-4-yl)oxy)-3′-nitro-[1,1′-biphenyl]-4-yl)-[1,1′-biphenyl]-3-carboxamide]

IC50 [1, 8]: 500 ± 10 nM | IC50 [2, 12]: 130 ± 20 nM
SMILES: COc1ccc(C(=O)Nc2ccc(-c3ccc(OC4CCN(C)CC4)cc3)cc2)cc1-c1ccc(O)cc1 [Compound 50b, 4′-hydroxy-6-methoxy-N-(4′-((1-methylpiperidin-4-yl)oxy)-[1,1′-biphenyl]-4-yl)-[1,1′-biphenyl]-3-carboxamide]
